Consider two compounds from patent US12576137B2, “Collagen hydrolysate comprising GPCR ligand peptide” (Industry-Academic Cooperation Foundation, Yonsei University, priority 2021, dated 2026).

The subject of one assay is Caco-2 cells. As to the kind of experiment: Wound healing (scratch) assay. It counts as cell-based, human. Conditions: pre-incubated with 0.1 μM CID 2745687.
Another assay has as its system ERK1/2 signaling pathway. Conditions: pre-treated with 0.1 μM CID 2745687 for 1 hour.

As to `CCCOc1ccccc1-c1nc2nn[nH]c2c(=O)[nH]1` [zaprinast], the “wound-healing activity after GPR35 inhibition” value with Caco-2 cells is “abolished”. Moreover, in the assay with ERK1/2 signaling pathway, the “ERK1/2 phosphorylation increase when treated with CID 2745687” value is given as “reversed”.

On to “human epidermal growth factor [EGF, a well-known wound therapeutic agent, positive control]”, for which the “wound-healing activity after GPR35 inhibition” value in the assay with Caco-2 cells was “not inhibited”.
